# Assay results published in patent US6737383B1, “Herbicidal oxadiazolidines” (priority 1999, dated 2004).
# What was measured:
# bedstraw = test: Test B pre/postemergence bedstraw; assay type: in vivo, Galium aparine
# Summary of the method: (§1)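 Test chemicals in a non-phytotoxic solvent mixture with surfactant were sprayed preemergence onto planted seeds and postemergence onto plants 2 to 18 cm tall (1- to 4-leaf stage). After twelve to sixteen days in a greenhouse, injury was visually rated against untreated controls from 0 (no effect) to 10 (complete control).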
# blackgrass = test: Test B pre/postemergence blackgrass; assay type: in vivo, Alopecurus myosuroides
# Summary of the method: as §1
# surinam grass = test: Test B pre/postemergence surinam grass; assay type: in vivo, Brachiaria decumbens
# Summary of the method: as §1
# cocklebur = test: Test B pre/postemergence cocklebur; assay type: in vivo, Xanthium strumarium
# Summary of the method: as §1
# corn = test: Test B pre/postemergence corn; assay type: in vivo, Zea mays
# Summary of the method: as §1
# giant foxtail = test: Test B pre/postemergence giant foxtail; assay type: in vivo, Setaria faberii
# Summary of the method: as §1
# morningglory = test: Test B pre/postemergence morningglory; assay type: in vivo, Ipomoea hederacea
# Summary of the method: as §1
# pigweed = test: Test B pre/postemergence pigweed; assay type: in vivo, Amaranthus retroflexus
# Summary of the method: as §1
# rape = test: Test B pre/postemergence rape; assay type: in vivo, Brassica napus
# Summary of the method: as §1
# soybean = test: Test B pre/postemergence soybean; assay type: in vivo, Glycine max
# Summary of the method: as §1
# sugar beet = test: Test B pre/postemergence sugar beet; assay type: in vivo, Beta vulgaris
# Summary of the method: as §1
# velvetleaf = test: Test B pre/postemergence velvetleaf; assay type: in vivo, Abutilon theophrasti
# Summary of the method: as §1
# wheat = test: Test B pre/postemergence wheat; assay type: in vivo, Triticum aestivum
# Summary of the method: as §1
# wild oat = test: Test B pre/postemergence wild oat; assay type: in vivo, Avena fatua
# Summary of the method: as §1
# rice = test: Test B flood test rice; assay type: in vivo, Oryza sativa
# Summary of the method: (§2)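 Flood test on plants grown to the 2-leaf stage; treated plants kept in greenhouse twelve to sixteen days, then visually rated against controls on a 0 (no effect) to 10 (complete control) scale.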
# smallflower flatsedge = test: Test B flood test smallflower flatsedge; assay type: in vivo, Cyperus difformis
# Summary of the method: as §2
# [1] = Postemergence, Rate 125 g/ha, scale 0 to 10, 0 is no effect, 10 is complete control
# [2] = Preemergence, Rate 62 g/ha, scale of 0 to 10 where 0 is no effect and 10 is complete control
# [3] = Preemergence, Rate 250 g/ha, scale of 0 to 10 where 0 is no effect and 10 is complete control
# [4] = Rate 62 g/ha, Postemergence, scale 0 to 10 (0 no effect, 10 complete control)
# [5] = Rate 250 g/ha, Postemergence, scale of 0 to 10 where 0 is no effect and 10 is complete control
# [6] = Rate 500 g/ha, Postemergence, scale 0 to 10, 0 no effect, 10 complete control
# [7] = Preemergence, Rate 500 g/ha, scale of 0 to 10 where 0 is no effect and 10 is complete control
# [8] = Rate 62 g/ha, headed Pre-emergence (flood test species), scale 0 to 10 (0 no effect, 10 complete control)
# [9] = Rate 125 g/ha, Pre-emergence, flood test species, scale 0 to 10 where 0 is no effect and 10 is complete control
# [10] = Rate 250 g/ha, Pre-emergence, flood-test species, scale 0 to 10, 0 is no effect, 10 is complete control
# [11] = Rate 500 g/ha, Pre-emergence, flood test species, scale 0 to 10 (0 no effect, 10 complete control)
smiles,measurement,setting,value
CC(C)N(C(=O)n1oc(=O)n(-c2ccc3ccccc3c2)c1=O)c1ccc(F)cc1F [Compound 335],"Plant response rating, Bedstraw",bedstraw; [1],0
same,Bedstraw plant response rating,bedstraw; [2],0
same,Bedstraw plant response rating (0 to 10 scale),"bedstraw; Preemergence, Rate 125 g/ha",0
same,Bedstraw plant response rating,bedstraw; [3],0
same,Bedstraw plant response rating,bedstraw; [4],0
same,"Plant response rating, Bedstraw",bedstraw; [5],0
same,"Plant response rating, Bedstraw",bedstraw; [6],4
same,"Plant response rating, Blackgrass",blackgrass; [1],0
same,Blackgrass plant response rating,blackgrass; [2],0
same,Blackgrass plant response rating (0 to 10 scale),"blackgrass; Preemergence, Rate 125 g/ha",0
same,Blackgrass plant response rating,blackgrass; [3],0
same,Blackgrass plant response rating,blackgrass; [7],0
same,Blackgrass plant response rating,blackgrass; [4],0
same,"Plant response rating, Blackgrass",blackgrass; [5],0
same,"Plant response rating, Blackgrass",blackgrass; [6],0
same,"Plant response rating, B. signalgrass",surinam grass; [1],0
same,B. signalgrass plant response rating,surinam grass; [2],0
same,"B. signalgrass plant response rating (0 to 10 scale, 0 is no effect, 10 is complete control)","surinam grass; Preemergence, Rate 125 g/ha",0
same,B. signalgrass plant response rating,surinam grass; [3],0
same,B. signalgrass plant response rating,surinam grass; [7],0
same,B. signalgrass plant response rating,surinam grass; [4],0
same,"Plant response rating, B. signalgrass",surinam grass; [5],0
same,"Plant response rating, B. signalgrass",surinam grass; [6],0
same,"Plant response rating, Cocklebur",cocklebur; [1],0
same,Cocklebur plant response rating,cocklebur; [2],0
same,Cocklebur plant response rating (0 to 10 scale),"cocklebur; Preemergence, Rate 125 g/ha",0
same,Cocklebur plant response rating,cocklebur; [3],0
same,Cocklebur plant response rating,cocklebur; [7],0
same,Cocklebur plant response rating,cocklebur; [4],0
same,"Plant response rating, Cocklebur",cocklebur; [6],0
same,"Plant response rating, Corn",corn; [1],0
same,Corn plant response rating,corn; [2],0
same,Corn plant response rating (0 to 10 scale),"corn; Preemergence, Rate 125 g/ha",0
same,Corn plant response rating,corn; [3],0
same,Corn plant response rating,corn; [7],0
same,Corn plant response rating,corn; [4],0
same,"Plant response rating, Corn",corn; [6],0
same,"Plant response rating, Giant foxtail",giant foxtail; [1],0
same,Giant foxtail plant response rating,giant foxtail; [2],2
same,Giant foxtail plant response rating (0 to 10 scale),"giant foxtail; Preemergence, Rate 125 g/ha",4
same,Giant foxtail plant response rating,giant foxtail; [3],10
same,Giant foxtail plant response rating,giant foxtail; [7],10
same,Giant foxtail plant response rating,giant foxtail; [4],0
same,"Plant response rating, Giant foxtail",giant foxtail; [6],0
same,"Plant response rating, Morningglory",morningglory; [1],0
same,Morningglory plant response rating,morningglory; [2],0
same,Morningglory plant response rating (0 to 10 scale),"morningglory; Preemergence, Rate 125 g/ha",0
same,Morningglory plant response rating,morningglory; [3],0
same,Morningglory plant response rating,morningglory; [7],0
same,Morningglory plant response rating,morningglory; [4],0
same,"Plant response rating, Morningglory",morningglory; [6],0
same,"Plant response rating, Redroot pigweed",pigweed; [1],0
same,Redroot pigweed plant response rating,pigweed; [2],0
same,Redroot pigweed plant response rating (0 to 10 scale),"pigweed; Preemergence, Rate 125 g/ha",0
same,Redroot pigweed plant response rating,pigweed; [3],0
same,Redroot pigweed plant response rating,pigweed; [7],0
same,Redroot pigweed plant response rating,pigweed; [4],0
same,"Plant response rating, Redroot pigweed",pigweed; [6],0
same,"Plant response rating, Rape",rape; [1],0
same,Rape plant response rating,rape; [2],0
same,Rape plant response rating (0 to 10 scale),"rape; Preemergence, Rate 125 g/ha",0
same,Rape plant response rating,rape; [3],0
same,Rape plant response rating,rape; [7],0
same,Rape plant response rating,rape; [4],0
same,"Plant response rating, Rape",rape; [6],0
same,"Plant response rating, Soybean",soybean; [1],2
same,Soybean plant response rating,soybean; [2],0
same,Soybean plant response rating (0 to 10 scale),"soybean; Preemergence, Rate 125 g/ha",0
same,Soybean plant response rating,soybean; [3],0
same,Soybean plant response rating,soybean; [7],0
same,Soybean plant response rating,soybean; [4],1
same,"Plant response rating, Soybean",soybean; [6],2
same,"Plant response rating, Sugarbeets",sugar beet; [1],0
same,Sugarbeets plant response rating,sugar beet; [2],0
same,Sugarbeets plant response rating (0 to 10 scale),"sugar beet; Preemergence, Rate 125 g/ha",0
same,Sugarbeets plant response rating,sugar beet; [3],0
same,Sugarbeets plant response rating,sugar beet; [7],0
same,Sugarbeets plant response rating,sugar beet; [4],0
same,"Plant response rating, Sugarbeets",sugar beet; [6],0
same,"Plant response rating, Velvetleaf",velvetleaf; [1],0
same,Velvetleaf plant response rating,velvetleaf; [2],0
same,Velvetleaf plant response rating (0 to 10 scale),"velvetleaf; Preemergence, Rate 125 g/ha",0
same,Velvetleaf plant response rating,velvetleaf; [3],0
same,Velvetleaf plant response rating,velvetleaf; [7],0
same,Velvetleaf plant response rating,velvetleaf; [4],0
same,"Plant response rating, Velvetleaf",velvetleaf; [6],0
same,"Plant response rating, Wheat",wheat; [1],0
same,Wheat plant response rating,wheat; [2],0
same,Wheat plant response rating (0 to 10 scale),"wheat; Preemergence, Rate 125 g/ha",0
same,Wheat plant response rating,wheat; [3],0
same,Wheat plant response rating,wheat; [7],0
same,Wheat plant response rating,wheat; [4],0
same,"Plant response rating, Wheat",wheat; [6],0
same,"Plant response rating, Wild oats",wild oat; [1],0
same,Wild oats plant response rating,wild oat; [2],0
same,Wild oats plant response rating (0 to 10 scale),"wild oat; Preemergence, Rate 125 g/ha",0
same,Wild oats plant response rating,wild oat; [3],0
same,Wild oats plant response rating,wild oat; [7],0
same,Wild oats plant response rating,wild oat; [4],0
same,"Plant response rating, Wild oats",wild oat; [6],0
same,Rice plant response rating,rice; [8],0
same,Rice plant response rating,rice; [9],0
same,Rice plant response rating,rice; [10],0
same,Rice plant response rating,rice; [11],0
same,S. Flatsedge plant response rating,smallflower flatsedge; [8],0
same,S. Flatsedge plant response rating,smallflower flatsedge; [9],0
same,S. Flatsedge plant response rating,smallflower flatsedge; [10],0
same,S. Flatsedge plant response rating,smallflower flatsedge; [11],0
